Reference: patent US11325905B2, “Imidopiperidine compounds as inhibitors of human polynucleotide kinase phosphatase” (THE GOVERNORS OF THE UNIVERSITY OF ALBERTA, priority 2017, dated 2022)
Several values for one entry are separate records, joined by “and”; a condition that tells them apart may be missing. Equal entries are not always repeated. Where two headings read alike, the source gives them in different places.

Experiments:
HCT116 PTEN−/− cells = test: Clonogenic survival assay, synthetic lethality; type: cell-based, human
Protocol: (§1) Cells, seeded in 60-mm dishes 24 hours in advance, were treated with PNKP inhibitors for 9-14 consecutive days at nontoxic concentrations. Colonies were then stained with a crystal violet (Sigma, Oakville, ON, CA) stain containing 25% methanol for 30 min, after which the plates were washed in warm water and left to dry overnight. Colonies consisting of 50 cells or more were counted using an automated colony counter (Oxford Optronix, Abingdon, UK).
(§2) To investigate whether the new encapsulated PNKP 3′-phosphatase inhibitors could induce a synthetic lethal response in PTEN-deficient cells, we performed clonogenic survival assays with both HCT116 PTEN+/+ and HCT116 PTEN−/− cells. […] However, the disruption of PNKP (chemically by inhibitors) or PTEN (genetically) individually was not lethal. These findings confirm our previous observation that a synthetic lethal relationship exists between PTEN and PNKP.

HCT116 cells [1] = test: MTS cell proliferation assay; type: cell-based, human; details: for usable concentration in clonogenic survival assays (not affecting cell growth): 72 h MTS
Protocol: Free inhibitor was dissolved in DMSO in a way to keep the final concentration of DMSO<1%. After 72 h, 11 μL of the pre-mixed optimized dye solution (tetrazolium dye) was added to each well and cells were incubated for 4 more hours at 37° C. The absorbance recorded at 490 nm on a FLUOstar Optima® plate reader (BMG Labtech Inc., Durham, N.C.) was used as a representation of the relative number of metabolically active cells in the culture.

Solubility = type: physicochemical
HCT116 PTEN+/+ cells = test: Clonogenic survival assay, PTEN wild-type control cells; type: cell-based; details: encapsulated, 9-14 days
Protocol: as §1, §2

HCT116 cells [2] = test: Clonogenic survival assay, radio/chemosensitization; type: cell-based, human
Protocol: (§3) Cells, seeded in 60-mm dishes 24 hours in advance, were treated with PNKP inhibitors for 9-14 consecutive days at nontoxic concentrations. […] Colonies consisting of 50 cells or more were counted using an automated colony counter (Oxford Optronix, Abingdon, UK).

EGFR = EGFR (Homo sapiens (Human), UniProt P00533); details: read-out: dissociation constant; cited from earlier work
[3] = system: HCT116 PNKP-knock out cells; test: Clonogenic survival assay, radio/chemosensitization in PNKP knock-out cells; type: cell-based, human; details: free or encapsulated
Protocol: as §3

[4] = system: HCT116 wild type (wt) and PTEN knockout colorectal cells xenograft tumours; test: Subcutaneous xenograft tumour response; type: in vivo; details: NIHIII mice, intravenous, three times 2 days apart, free or encapsulated
Protocol: In FIG. 32, we have injected 500,000 HCT116 colorectal cancer cells subcutaneously in the right flank of NIHIII mice. […] Tumour volume was then calculated from the measurement of tumour dimensions and used to plot change in tumour volume over time.

[5] = In vitro release of PNKP inhibitors by dialysis method; type: physicochemical
Protocol: The in vitro release of encapsulated PNKP inhibitors was studied using a dialysis method. Each dialysis bag (Spectrapor dialysis tubing, MWCO 3.5 kDa, Spectrum Laboratories, Rancho Dominguez, Calif.), containing 2 mL of the micellar formulation or free drug dissolved in acetone, was placed into 300 mL of distilled water maintained at 37° C. in a shaking water bath (65 rpm, Julabo SW 22 shaking water bath, Seelbach, Germany). At selected time intervals, aliquots of 200 μL from the inside of the dialysis bag were collected. The amount of PNKP inhibitor was analyzed using a Varian Prostar 210 HPLC system. Reversed phase chromatography was carried out with a Microsorb-MV 5 μm C18-100 Å column (4.6 mm×250 mm) with 20 μL of sample injected and eluted under isocratic conditions with a solution of 0.1% trifluroacetic acid/acetonitrile (1:1 v/v) at a flow rate of 1.0 mL/min at room temperature.

[6] = system: radioresistant prostate cancer cells; details: cited from earlier work
myeloid leukemia cells = details: cited from earlier work
PNKP [7] = molecular target: T1, PNKP (Homo sapiens (Human), UniProt Q96T60); test: Universal molecular beacon (U-MB) fluorescence assay of PNKP phosphatase activity, IC50; type: biochemical
Protocol: (§4) We chose to first rate and compare the analogues using a single-point measurement at 20 μM concentration. […] Only the top-rated analogues were further evaluated with an IC50 and a dissociation constant (Kd) determination.

PNKP [8] = molecular target: T1, PNKP; test: Binding affinity (Kd) by steady-state fluorescence spectroscopy, protein tryptophan fluorescence quenching
Protocol: as §4
Freschauf, G. K., Mani, R. S., Mereniuk, T. R., Fanta, M., Virgen, C. A., Dianov, G. L., Grassot, J. M., Hall, D. G., and Weinfeld, M. Mechanism of action of an imido-piperidine inhibitor of human polynucleotide kinase/phosphatase.

[9] = system: human A549 lung carcinoma cells; details: non-toxic doses; cited from earlier work
[10] = system: MDA-MB-231 breast cancer cells; details: non-toxic doses; cited from earlier work
murine PNKP = murine PNKP (Mus musculus (Mouse), UniProt Q9JLV6); details: compared with human PNKP; cited from earlier work
Chain of murine PNKP (Q9JLV6 whole entry): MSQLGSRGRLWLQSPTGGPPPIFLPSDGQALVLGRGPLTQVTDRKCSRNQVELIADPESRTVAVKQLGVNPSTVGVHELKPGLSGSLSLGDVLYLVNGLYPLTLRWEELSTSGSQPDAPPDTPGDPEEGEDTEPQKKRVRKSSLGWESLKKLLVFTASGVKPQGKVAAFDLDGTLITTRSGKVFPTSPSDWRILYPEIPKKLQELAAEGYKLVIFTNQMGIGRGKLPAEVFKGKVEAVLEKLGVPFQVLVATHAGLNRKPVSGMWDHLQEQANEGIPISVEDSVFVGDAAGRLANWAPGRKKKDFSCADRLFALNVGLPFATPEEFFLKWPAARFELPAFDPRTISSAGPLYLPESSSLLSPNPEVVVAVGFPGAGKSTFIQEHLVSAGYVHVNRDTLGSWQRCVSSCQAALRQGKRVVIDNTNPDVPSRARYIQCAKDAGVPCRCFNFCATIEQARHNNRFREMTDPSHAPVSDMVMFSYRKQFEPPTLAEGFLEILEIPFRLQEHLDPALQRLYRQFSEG

[11] = system: cells in which PNKP expression was down-regulated by shRNA; details: cited from earlier work
[12] = system: limited panel of phosphatase enzymes; details: cited from earlier work
PNKP [13] = molecular target: T1, PNKP; details: intrinsic (tryptophan) fluorescence quenching titration, earlier publication; read-out: dissociation constant (Kd); cited from earlier work
[14] = concentrations of 5-10 μM; cited from earlier work

Question: Which “level at which encapsulated inhibitor induced synthetic lethality” value (HCT116 PTEN−/− cells) does the source give for `CCCCCCCCCC[C@@H](O)[C@@H]1C=CC2C(=O)N(c3ccc(N4CCNCC4)cc3)C(=O)[C@H]2N1Nc1ccc([N+](=O)[O-])cc1` (some centres unmarked) [Compound A12B4C50] here?
Answer: Its value is 4 µM.

Question: And the “usable concentration in clonogenic survival assays (not affecting cell growth)” value (HCT116 cells [1])?
Answer: Its value is at most 5 µM.

Question: And the “concentrations at which cell growth was affected” value (HCT116 cells [1]; free and encapsulated, 72 h)?
Answer: Its value is over 5 µM.

Question: And the water solubility (Solubility)?
Answer: Its water solubility is “low water solubility”.

Question: And the “toxicity to HCT116 PTEN+/+ cells” value (HCT116 PTEN+/+ cells)?
Answer: The value was “showed toxicity”.

Question: And the “level at which encapsulated inhibitor sensitized HCT116 cells to radiation and irinotecan” value (HCT116 cells [2])?
Answer: The value was 4 µM.

Question: Which “solubility compared with A12B4C3” value (Solubility) does the source give for `O=C1C2C=C[C@H]([C@H](O)c3ccc(Br)cc3)N(Nc3ccc([N+](=O)[O-])cc3)[C@@H]2C(=O)N1c1ccccc1` (some centres unmarked) [Compound A44B4C3] here?
Answer: Its value is “more soluble”.

Question: Which Kd (EGFR) does the source give for YHWYGYTPQNVI [GE11] here?
Answer: The Kd was about 22 nM.

Question: For `COc1ccccc1C(O)C1C=CC2C(=O)N(Cc3cccc4ccccc34)C(=O)C2N1Nc1ccc([N+](=O)[O-])cc1` (centres unmarked) [Compound A83B4C63, 2-[hydroxy(2-methoxyphenyl)methyl]-6-(naphthalen-1-ylmethyl)-1-[(4-nitrophenyl)amino]2H,4aH,7aH-pyrrolo[3,4-b]pyridine-5,7-dione], which “synthetic lethality in HCT116 PTEN−/− cells” value (HCT116 PTEN−/− cells; 9-14 days treatment) is on record?
Answer: The value was “more specifically toxic to PTEN-deficient cells than A12B4C50”.

Question: And the “level at which encapsulated inhibitor induced synthetic lethality” value (HCT116 PTEN−/− cells)?
Answer: The value was 4 µM.

Question: What about the “usable concentration in clonogenic survival assays (not affecting cell growth)” value (HCT116 cells [1]) of the same compound?
Answer: The value was under 20 µM.

Question: And the water solubility (Solubility)?
Answer: Its water solubility is “low water solubility”.

Question: What about the “level at which encapsulated inhibitor sensitized HCT116 cells to radiation and irinotecan” value (HCT116 cells [2]) of the same compound?
Answer: The value was 6 µM.

Question: And the “sensitization of HCT116 PNKP-knock out cells to radiation or irinotecan” value [3]?
Answer: Its value is “failed to further sensitize”.

Question: What about the “tumour volume response, PTEN positive versus PTEN negative tumour model” value [4] of the same compound?
Answer: The value was “not as effective in the PTEN positive tumour model as it is in the PTEN negative tumour model”.

Question: What about the “drug released from the dialysis bag” value ([5]; free drug, within 6 h, 37° C.) of the same compound?
Answer: Its value is 59.4%.

Question: What about the drug released ([5]; from PEO-b-PBCL micelles, within 6 h, 37° C.) of the same compound?
Answer: The drug released was 30.6%.

Question: And the drug release ([5]; from PEO-b-PCL formulations, within 24 h)?
Answer: The drug release was 84.2%.

Question: What about the drug released ([5]; from PEO-b-PCL micelles, within 6 h, 37° C.) of the same compound?
Answer: Its drug released is 66.5%.

Question: And the cumulative release ([5]; from respective optimum micelles (PEO-b-PCCL for A12B4C50, PEO-b-PBCL for A83B4C63), within 24 h)?
Answer: The cumulative release was 48% and 48.2%.

Question: What does the source list for `CCCCCCCCCC[C@@H](O)[C@H]1C=CC2C(=O)N(c3ccccc3)C(=O)[C@H]2N1Nc1ccc([N+](=O)[O-])cc1` (stereo in doubt) [Compound A12B4C3, 2-(1-hydroxyundecyl)-1-(4-nitrophenylamino)-6-phenyl-6,7a-dihydro-1H-pyrrolo[3,4-b]pyridine-5,7(2H, 4aH)-dione]?
Answer: sensitization to irradiation by carbon ions [6]: sensitizes; sensitization to Auger electron-emitting radioimmunoconjugate (myeloid leukemia cells): sensitizes; IC50 (PNKP [7]): 14000 nM; Kd (PNKP [8]): 370 nM; sensitization to γ-radiation and camptothecin [9]: able to sensitize; sensitization to γ-radiation and camptothecin [10]: able to sensitize; inhibition of murine PNKP (murine PNKP): only slightly reduced efficacy; sensitization of PNKP-down-regulated cells [11]: failed to sensitize; specificity [12]: specificity for PNKP; Kd (PNKP [13]): 340 nM; cytotoxicity [14]: low cytotoxicity

Question: With `COc1ccccc1[C@@H](O)[C@H]1C=CC2C(=O)N(c3ccccc3)C(=O)[C@H]2N1Nc1ccc([N+](=O)[O-])cc1` (some centres unmarked) [Compound A83B4C3] as the compound, how does the “solubility compared with A12B4C3” value (Solubility) read?
Answer: The value was “more soluble”.
